Assays:
Assay in all cases: biochemical
Set-up in all cases: KINOMEscan active-site competition binding panel (468 kinase assays), per cent of control at 1000 nM
Conditions in all cases: KINOMEscan per cent of control (binding competition); read-out: Percent Control
[1] = target: T1, ABL1(M351T)-phosphorylated (Homo sapiens, UniProt P00519, M351T)
T1 construct: phosphorylated
Excerpt: (§1) Figure S7 / Percent Control

[2] = target: T2, ABL1(Q252H)-nonphosphorylated (Homo sapiens, UniProt P00519, Q252H)
T2 construct: nonphosphorylated
Excerpt: as §1

[3] = target: CAMK4 (Homo sapiens, UniProt Q16566)
Excerpt: as §1

[4] = target: CDK8 (Homo sapiens, UniProt P49336)
Excerpt: as §1

[5] = target: CDKL1 (Homo sapiens, UniProt Q00532)
Excerpt: as §1

[6] = target: DAPK2 (Homo sapiens, UniProt Q9UIK4)
Excerpt: as §1

[7] = target: DAPK3 (Homo sapiens, UniProt O43293)
Excerpt: as §1

[8] = target: FRK (Homo sapiens, UniProt P42685)
Excerpt: as §1

[9] = target: INSRR (Homo sapiens, UniProt P14616)
Excerpt: as §1

[10] = target: T3, JNK2 (Homo sapiens, UniProt P45984)
T3 construct: gene MAPK9
Excerpt: as §1

[11] = target: T4, MST2 (Homo sapiens, UniProt Q13188)
T4 construct: gene STK3
Excerpt: as §1

[12] = target: NEK6 (Homo sapiens, UniProt Q9HC98)
Excerpt: as §1

[13] = target: PIK3CA(E545K) (Homo sapiens, UniProt P42336, E545K)
Excerpt: as §1

[14] = target: PIM3 (Homo sapiens, UniProt Q86V86)
Excerpt: as §1

[15] = target: PIP5K1A (Homo sapiens, UniProt Q99755)
Excerpt: as §1

[16] = target: PIP5K1C (Homo sapiens, UniProt O60331)
Excerpt: as §1

[17] = target: T5, PKAC-beta (Homo sapiens, UniProt P22694)
T5 construct: gene PRKACB
Excerpt: as §1

[18] = target: T6, PRKR (Homo sapiens, UniProt P19525)
T6 construct: gene EIF2AK2
Excerpt: as §1

[19] = target: T7, QSK (Homo sapiens, UniProt Q9Y2K2)
T7 construct: gene SIK3
Excerpt: as §1

[20] = target: RIOK2 (Homo sapiens, UniProt Q9BVS4)
Excerpt: as §1

[21] = target: STK16 (Homo sapiens, UniProt O75716)
Excerpt: as §1

[22] = target: STK35 (Homo sapiens, UniProt Q8TDR2)
Excerpt: as §1

[23] = target: TNIK (Homo sapiens, UniProt Q9UKE5)
Excerpt: as §1

[24] = target: T8, TYK2(JH1domain-catalytic) (Homo sapiens, UniProt P29597)
T8 construct: JH1domain-catalytic
Excerpt: as §1

[25] = target: ULK1 (Homo sapiens, UniProt O75385)
Excerpt: as §1

Sequence of FRK (P42685 whole entry): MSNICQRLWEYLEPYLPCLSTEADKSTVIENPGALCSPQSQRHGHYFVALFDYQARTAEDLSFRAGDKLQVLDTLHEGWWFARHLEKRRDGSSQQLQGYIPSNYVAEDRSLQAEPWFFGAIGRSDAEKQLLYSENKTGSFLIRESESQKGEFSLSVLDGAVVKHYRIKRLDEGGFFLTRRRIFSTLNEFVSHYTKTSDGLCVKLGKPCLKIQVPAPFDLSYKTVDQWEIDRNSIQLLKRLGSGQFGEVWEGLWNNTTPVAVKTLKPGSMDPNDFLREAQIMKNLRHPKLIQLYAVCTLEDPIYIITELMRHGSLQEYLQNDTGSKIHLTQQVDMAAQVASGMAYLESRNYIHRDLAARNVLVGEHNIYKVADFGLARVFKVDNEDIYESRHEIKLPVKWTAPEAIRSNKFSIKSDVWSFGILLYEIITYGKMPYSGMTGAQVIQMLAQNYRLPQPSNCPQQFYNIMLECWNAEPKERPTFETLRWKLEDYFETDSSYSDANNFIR
T3 sequence (P45984 whole entry): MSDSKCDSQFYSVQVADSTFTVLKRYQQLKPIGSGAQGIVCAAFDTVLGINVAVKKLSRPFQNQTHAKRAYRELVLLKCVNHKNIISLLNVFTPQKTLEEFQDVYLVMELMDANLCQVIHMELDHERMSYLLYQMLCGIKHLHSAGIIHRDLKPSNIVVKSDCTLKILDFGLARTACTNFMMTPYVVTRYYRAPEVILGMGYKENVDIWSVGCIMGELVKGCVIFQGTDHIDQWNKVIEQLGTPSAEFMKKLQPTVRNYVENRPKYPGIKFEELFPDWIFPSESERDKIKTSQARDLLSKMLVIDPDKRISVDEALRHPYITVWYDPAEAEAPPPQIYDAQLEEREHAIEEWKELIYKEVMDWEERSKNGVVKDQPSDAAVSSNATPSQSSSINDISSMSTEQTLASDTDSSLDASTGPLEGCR
Sequence of STK16 (O75716 whole entry): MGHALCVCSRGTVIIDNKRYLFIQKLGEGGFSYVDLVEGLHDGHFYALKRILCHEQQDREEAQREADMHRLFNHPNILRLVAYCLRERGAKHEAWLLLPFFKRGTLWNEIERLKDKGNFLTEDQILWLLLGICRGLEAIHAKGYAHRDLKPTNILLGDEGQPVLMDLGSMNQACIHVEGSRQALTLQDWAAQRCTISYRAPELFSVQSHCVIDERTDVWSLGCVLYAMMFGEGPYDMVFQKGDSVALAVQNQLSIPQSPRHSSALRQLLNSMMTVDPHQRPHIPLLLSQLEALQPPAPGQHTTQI
Sequence of INSRR (P14616 whole entry): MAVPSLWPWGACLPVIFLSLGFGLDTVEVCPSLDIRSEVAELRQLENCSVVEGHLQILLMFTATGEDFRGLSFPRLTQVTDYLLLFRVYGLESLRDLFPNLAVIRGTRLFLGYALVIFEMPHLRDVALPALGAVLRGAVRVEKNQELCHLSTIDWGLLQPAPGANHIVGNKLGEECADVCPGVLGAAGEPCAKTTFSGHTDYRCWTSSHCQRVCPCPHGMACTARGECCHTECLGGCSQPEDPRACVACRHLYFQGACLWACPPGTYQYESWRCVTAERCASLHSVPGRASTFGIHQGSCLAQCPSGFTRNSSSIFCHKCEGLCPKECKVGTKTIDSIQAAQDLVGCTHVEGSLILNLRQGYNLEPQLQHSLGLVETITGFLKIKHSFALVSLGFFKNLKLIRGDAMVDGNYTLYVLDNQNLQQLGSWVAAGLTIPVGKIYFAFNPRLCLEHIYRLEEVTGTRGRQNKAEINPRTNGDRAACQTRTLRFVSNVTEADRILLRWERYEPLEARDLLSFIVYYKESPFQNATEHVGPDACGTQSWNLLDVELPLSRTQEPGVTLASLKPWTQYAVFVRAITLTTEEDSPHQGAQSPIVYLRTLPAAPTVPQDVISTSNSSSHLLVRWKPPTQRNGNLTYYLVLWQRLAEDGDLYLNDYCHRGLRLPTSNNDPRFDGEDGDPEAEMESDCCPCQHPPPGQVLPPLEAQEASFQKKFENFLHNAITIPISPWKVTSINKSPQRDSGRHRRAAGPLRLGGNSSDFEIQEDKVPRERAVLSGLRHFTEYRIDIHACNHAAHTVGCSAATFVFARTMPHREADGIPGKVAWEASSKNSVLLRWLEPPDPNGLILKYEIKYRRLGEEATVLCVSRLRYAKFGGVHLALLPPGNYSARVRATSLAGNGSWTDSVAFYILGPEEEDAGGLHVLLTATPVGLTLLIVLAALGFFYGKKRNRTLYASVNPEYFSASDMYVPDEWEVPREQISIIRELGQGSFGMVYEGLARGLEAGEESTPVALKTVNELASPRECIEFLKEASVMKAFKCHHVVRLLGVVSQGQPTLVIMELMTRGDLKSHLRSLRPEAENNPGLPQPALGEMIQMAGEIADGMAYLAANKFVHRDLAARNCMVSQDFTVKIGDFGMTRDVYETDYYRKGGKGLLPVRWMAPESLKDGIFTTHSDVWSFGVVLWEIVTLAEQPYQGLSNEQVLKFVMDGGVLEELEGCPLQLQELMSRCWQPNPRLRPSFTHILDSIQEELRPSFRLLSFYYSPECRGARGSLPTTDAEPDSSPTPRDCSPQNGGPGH
Sequence of STK35 (Q8TDR2 whole entry): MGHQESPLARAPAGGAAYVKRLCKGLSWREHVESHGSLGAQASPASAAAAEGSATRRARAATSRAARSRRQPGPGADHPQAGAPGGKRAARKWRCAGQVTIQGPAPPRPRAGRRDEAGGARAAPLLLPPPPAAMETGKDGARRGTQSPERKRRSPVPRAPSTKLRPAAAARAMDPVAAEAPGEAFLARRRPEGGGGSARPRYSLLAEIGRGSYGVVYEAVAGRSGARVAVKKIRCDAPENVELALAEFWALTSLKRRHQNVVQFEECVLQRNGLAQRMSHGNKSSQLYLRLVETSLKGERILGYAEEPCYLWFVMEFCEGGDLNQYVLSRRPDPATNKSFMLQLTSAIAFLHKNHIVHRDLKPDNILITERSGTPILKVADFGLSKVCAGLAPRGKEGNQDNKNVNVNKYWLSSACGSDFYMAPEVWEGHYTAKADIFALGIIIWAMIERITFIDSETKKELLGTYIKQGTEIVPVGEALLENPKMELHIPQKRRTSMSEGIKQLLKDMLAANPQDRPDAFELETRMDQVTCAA
Sequence of ULK1 (O75385 whole entry): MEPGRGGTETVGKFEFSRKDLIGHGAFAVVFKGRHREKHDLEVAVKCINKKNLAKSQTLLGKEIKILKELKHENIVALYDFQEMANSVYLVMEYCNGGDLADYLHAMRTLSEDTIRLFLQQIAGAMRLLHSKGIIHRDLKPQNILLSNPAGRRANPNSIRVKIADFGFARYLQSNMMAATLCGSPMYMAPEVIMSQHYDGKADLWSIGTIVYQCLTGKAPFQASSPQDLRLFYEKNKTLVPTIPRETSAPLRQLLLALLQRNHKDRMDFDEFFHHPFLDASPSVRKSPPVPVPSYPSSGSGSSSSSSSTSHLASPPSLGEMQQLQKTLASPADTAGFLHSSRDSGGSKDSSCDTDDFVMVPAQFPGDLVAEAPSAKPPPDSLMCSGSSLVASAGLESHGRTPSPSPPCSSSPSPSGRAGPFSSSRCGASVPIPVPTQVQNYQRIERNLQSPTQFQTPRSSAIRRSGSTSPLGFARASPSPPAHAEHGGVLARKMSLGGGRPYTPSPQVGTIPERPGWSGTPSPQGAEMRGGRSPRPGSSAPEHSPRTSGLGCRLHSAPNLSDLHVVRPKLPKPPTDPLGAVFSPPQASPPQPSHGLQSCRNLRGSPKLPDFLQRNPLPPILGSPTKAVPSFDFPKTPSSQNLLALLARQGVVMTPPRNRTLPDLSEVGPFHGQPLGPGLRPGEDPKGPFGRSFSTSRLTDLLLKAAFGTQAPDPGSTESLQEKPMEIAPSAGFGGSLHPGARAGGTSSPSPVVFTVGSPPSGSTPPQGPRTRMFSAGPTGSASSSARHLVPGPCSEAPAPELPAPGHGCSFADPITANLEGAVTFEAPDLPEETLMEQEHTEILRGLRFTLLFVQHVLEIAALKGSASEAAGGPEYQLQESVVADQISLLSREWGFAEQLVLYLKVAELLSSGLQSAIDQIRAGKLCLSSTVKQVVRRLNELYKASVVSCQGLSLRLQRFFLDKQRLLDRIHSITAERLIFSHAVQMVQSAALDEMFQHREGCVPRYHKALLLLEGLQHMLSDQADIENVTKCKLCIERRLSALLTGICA
T6 sequence (P19525 whole entry): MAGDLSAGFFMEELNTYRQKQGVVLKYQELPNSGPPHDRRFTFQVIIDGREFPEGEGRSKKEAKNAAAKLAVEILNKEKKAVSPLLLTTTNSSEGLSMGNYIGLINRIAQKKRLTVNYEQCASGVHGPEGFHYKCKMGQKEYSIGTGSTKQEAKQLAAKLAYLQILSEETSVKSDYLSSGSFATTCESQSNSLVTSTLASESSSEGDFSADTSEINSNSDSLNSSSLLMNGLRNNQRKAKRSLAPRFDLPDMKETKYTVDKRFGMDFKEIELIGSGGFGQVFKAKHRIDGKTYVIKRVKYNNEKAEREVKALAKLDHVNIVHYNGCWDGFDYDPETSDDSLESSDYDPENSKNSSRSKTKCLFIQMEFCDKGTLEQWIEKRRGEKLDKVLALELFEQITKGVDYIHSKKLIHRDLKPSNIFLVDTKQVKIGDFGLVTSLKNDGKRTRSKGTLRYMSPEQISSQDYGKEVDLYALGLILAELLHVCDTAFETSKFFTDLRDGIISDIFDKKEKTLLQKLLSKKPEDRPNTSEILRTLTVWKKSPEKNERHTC

Cn1c(=O)[nH]c2ccc(-c3cccc(C(=O)NC4CCn5ccnc5C4)c3)cc21 (stereo not shown) [Z36-MP5]
remaining binding at 1 µM [1]: 59% | remaining binding at 1 µM [2]: 84% | remaining binding at 1 µM [3]: 98% | remaining binding at 1 µM [4]: 55% | remaining binding at 1 µM [5]: 41% | remaining binding at 1 µM [6]: 93% | remaining binding at 1 µM [7]: 89% | remaining binding at 1 µM [8]: 100% | remaining binding at 1 µM [9]: 86% | remaining binding at 1 µM [10]: 54% | remaining binding at 1 µM [11]: 93% | remaining binding at 1 µM [12]: 83% | remaining binding at 1 µM [13]: 48% | remaining binding at 1 µM [14]: 85% | remaining binding at 1 µM [15]: 57% | remaining binding at 1 µM [16]: 66% | remaining binding at 1 µM [17]: 96% | remaining binding at 1 µM [18]: 99% | remaining binding at 1 µM [19]: 63% | remaining binding at 1 µM [20]: 84% | remaining binding at 1 µM [21]: 31% | remaining binding at 1 µM [22]: 81% | remaining binding at 1 µM [23]: 98% | remaining binding at 1 µM [24]: 64% | remaining binding at 1 µM [25]: 51%

From paper PMC10924921, “Mi-2β promotes immune evasion in melanoma by activating EZH2 methylation” (Nature Communications, 2024)
